Reference: publication PMC3740399, “Carfilzomib in multiple myeloma patients with renal impairment: pharmacokinetics and safety” (Leukemia, 2013)

Tests used:
[1] = Safety: treatment-emergent adverse events (CTCAE Version 3.0); format: in vivo, human; conditions: for Anemia, Grades 3/4 / Decreased hemoglobin, Grades 3/4 / Dyspnea, Grades 3/4 / Fatigue, Grades 3/4 / Hypokalemia, Grades 3/4 / Lymphopenia, Grades 3/4 / Pain, Grades 3/4 / Pneumonia, Grades 3/4 / Thrombocytopenia, Grades 3/4: number of patients
Method: (§1) All patients who received at least one dose of carfilzomib were included in the safety population. Incidence, severity and duration of AEs, including all serious AEs and those considered to be treatment related, and shifts to or from abnormal relative to baseline in key laboratory parameters were categorized according to the National Cancer Institute's Common Terminology Criteria for Adverse Events (CTCAE) Version 3.0.[16] […] ECGs were performed in most patients to satisfy regulatory requirements, but were not required by the study protocol.

[2] = Urinary excretion of carfilzomib (LC MS/MS); format: in vivo, human
Method: Blood for plasma PK analysis was collected on days 1 and 15 of Cycle 1, and on day 15 of Cycle 2, before dosing (t=0), at the end of dosing, and at 5, 15 and 30 min and 1, 1.5, 2, 4, 6 and 24 h after dosing; urine samples were collected cumulatively over 0–5 h and 5–24 h on days 1 and 15 of Cycle 1 following administration of carfilzomib to determine carfilzomib concentrations. Carfilzomib concentrations were determined using validated liquid chromatography tandem mass spectrometry (LC MS/MS) methods with a calibration range of 0.300–300 ng/ml for plasma samples and 4.0–2000 ng/ml for urine samples. Plasma concentration of carfilzomib versus time was plotted on days 1 and 15 in Cycle 1, and PK parameters were calculated using a non-compartmental constant infusion method using WinNonlin (Pharsight, Sunnyvale, CA, USA). To determine whether renal impairment affected the PK of carfilzomib, the relationship between renal function status and relevant PK parameters was evaluated. Statistical comparison (analysis of variance) of the ln-transformed dose-adjusted PK parameters was also performed between patients with normal renal function and each group of patients with renal impairment. For these parameters, 90% confidence intervals (CI) were calculated for the ratios between least squares of the mean (LSM) for each group versus the normal renal function group (Group 1). […]

[3] = system: proteasome chymotrypsin-like activity; assay: Proteasome chymotrypsin-like activity in whole blood (RBC) and PBMC, fluorogenic substrate (LLVY-AMC) assay; format: in vivo, human
Method: Proteasome chymotrypsin-like activity was measured in whole-blood (red blood cells, RBC) and isolated peripheral blood mononuclear cell samples using a fluorogenic-based substrate assay as previously described.[15] Blood for PDn analysis was collected before carfilzomib dosing and 1 h after carfilzomib dosing on days 1, 2 and 8 of Cycle 1 and on day 1 of Cycle 2.
Figure 2 Proteasome inhibition following the first dose of carfilzomib. Proteasome activity was measured in whole-blood and peripheral blood mononuclear cells before and 1 h after the first dose of 15 mg/m^2 carfilzomib on day 1 of Cycle 1 (using LLVY-AMC substrate). Data are presented as mean activity (±s.e.m.) relative to pre-dose values for each group. The number of patient samples for each Group is noted. Group 1, normal renal function; Group 2, mild renal impairment; Group 3, moderate renal impairment; Group 4, severe renal impairment; Group 5, chronic dialysis.

[4] = design: species or system human; conditions: in vivo
Method: as §1

[5] = system: relapsed and/or refractory multiple myeloma; assay: Efficacy: best response (IMWG criteria with EBMT minimal response); format: in vivo, human; conditions: for Overall response rate: PR or better
Method: Patients who received at least 1 cycle of carfilzomib and had at least one post-baseline assessment for disease response were included in the efficacy analysis. Each evaluable patient's best response to treatment over the course of the study was evaluated by the investigator and sponsor using the International Myeloma Working Group Uniform Response Criteria, modified to include minimal response defined per the European Group for Blood and Marrow Transplantation.[17], [18] Responses assessed by the investigators at the end of the study are reported here. The overall response rate was defined as the proportion of PR or better responses, and the 95% Clopper-Pearson exact binomial CI was calculated. The duration of response was calculated as the time from the first evidence of a PR or better until confirmation of disease progression. Median time to progression and progression-free survival were assessed among all patients with >stable disease (s.d.). For progression-free survival, deaths due to causes other than disease progression were censored.

[6] = in vivo
Method: Carfilzomib was administered by IV infusion over 2–10 min on days 1, 2, 8, 9, 15 and 16 of a 28-day cycle for up to 12 cycles. The dose of carfilzomib in Cycle 1 was 15 mg/m^2. If this dose was tolerated, it was increased to 20 mg/m^2 at Cycle 2, and to 27 mg/m^2 at Cycle 3 and for all subsequent cycles as tolerated.
Blood for plasma PK analysis was collected on days 1 and 15 of Cycle 1, and on day 15 of Cycle 2, before dosing (t=0), at the end of dosing, and at 5, 15 and 30 min and 1, 1.5, 2, 4, 6 and 24 h after dosing; urine samples were collected cumulatively over 0–5 h and 5–24 h on days 1 and 15 of Cycle 1 following administration of carfilzomib to determine carfilzomib concentrations. Carfilzomib concentrations were determined using validated liquid chromatography tandem mass spectrometry (LC MS/MS) methods with a calibration range of 0.300–300 ng/ml for plasma samples and 4.0–2000 ng/ml for urine samples. Plasma concentration of carfilzomib versus time was plotted on days 1 and 15 in Cycle 1, and PK parameters were calculated using a non-compartmental constant infusion method using WinNonlin (Pharsight, Sunnyvale, CA, USA). To determine whether renal impairment affected the PK of carfilzomib, the relationship between renal function status and relevant PK parameters was evaluated. Statistical comparison (analysis of variance) of the ln-transformed dose-adjusted PK parameters was also performed between patients with normal renal function and each group of patients with renal impairment. For these parameters, 90% confidence intervals (CI) were calculated for the ratios between least squares of the mean (LSM) for each group versus the normal renal function group (Group 1). […] The primary PK parameters—apparent plasma clearance, dose-normalized AUCinf (total exposure), and the dose-normalized Cmax on day 1 and day 15 of Cycle 1—were also estimated as a function of CrCl by linear regression using a mixed-effects model (Y=β0+β1 × CrCl+β2 × Age+β3 × weight, where Y=PK parameter, β0 = intercept, and β1, β2 and β3 are slope parameters associated with CrCl, age and weight, respectively).

[7] = Group 1 (normal renal function), n=12
[8] = Group 2 (mild impairment), n=12
[9] = Group 3 (moderate impairment), n=10
[10] = Group 4 (severe impairment), n=8
[11] = Group 5 (chronic dialysis), n=8
[12] = All patients, n=28, patients who received dexamethasone ⩾20 mg before carfilzomib doses
[13] = All patients, n=47, all patients with response assessment
[14] = Group 1 (normal renal function), n=7, patients who received dexamethasone ⩾20 mg before carfilzomib doses
[15] = Group 1 (normal renal function), n=11, all patients with response assessment
[16] = Group 2 (mild impairment), n=8, patients who received dexamethasone ⩾20 mg before carfilzomib doses
[17] = Group 2 (mild impairment), n=11, all patients with response assessment
[18] = Group 3 (moderate impairment), n=4, patients who received dexamethasone ⩾20 mg before carfilzomib doses
[19] = Group 3 (moderate impairment), n=9, all patients with response assessment
[20] = Group 4 (severe impairment), n=5, patients who received dexamethasone ⩾20 mg before carfilzomib doses
[21] = Group 4 (severe impairment), n=8, all patients with response assessment
[22] = Group 5 (chronic dialysis), n=4, patients who received dexamethasone ⩾20 mg before carfilzomib doses
[23] = Group 5 (chronic dialysis), n=8, all patients with response assessment

CC(C)C[C@H](NC(=O)[C@H](CCc1ccccc1)NC(=O)CN1CCOCC1)C(=O)N[C@@H](Cc1ccccc1)C(=O)N[C@@H](CC(C)C)C(=O)[C@@]1(C)CO1 [carfilzomib]
Anemia, Grades 3/4 [1, 7]: 2 | Decreased hemoglobin, Grades 3/4 [1, 7]: 1 | Dyspnea, Grades 3/4 [1, 7]: 0 | Fatigue, Grades 3/4 [1, 7]: 2 | Hypokalemia, Grades 3/4 [1, 7]: 1 | Lymphopenia, Grades 3/4 [1, 7]: 2 | Pain, Grades 3/4 [1, 7]: 0 | Pneumonia, Grades 3/4 [1, 7]: 1 | Thrombocytopenia, Grades 3/4 [1, 7]: 1 | Anemia, Grades 3/4 [1, 8]: 4 | Decreased hemoglobin, Grades 3/4 [1, 8]: 0 | Dyspnea, Grades 3/4 [1, 8]: 0 | Fatigue, Grades 3/4 [1, 8]: 1 | Hypokalemia, Grades 3/4 [1, 8]: 1 | Lymphopenia, Grades 3/4 [1, 8]: 3 | Pain, Grades 3/4 [1, 8]: 2 | Pneumonia, Grades 3/4 [1, 8]: 1 | Thrombocytopenia, Grades 3/4 [1, 8]: 5 | Anemia, Grades 3/4 [1, 9]: 5 | Decreased hemoglobin, Grades 3/4 [1, 9]: 1 | Dyspnea, Grades 3/4 [1, 9]: 2 | Fatigue, Grades 3/4 [1, 9]: 2 | Hypokalemia, Grades 3/4 [1, 9]: 0 | Lymphopenia, Grades 3/4 [1, 9]: 1 | Pain, Grades 3/4 [1, 9]: 3 | Pneumonia, Grades 3/4 [1, 9]: 3 | Thrombocytopenia, Grades 3/4 [1, 9]: 3 | Anemia, Grades 3/4 [1, 10]: 2 | Decreased hemoglobin, Grades 3/4 [1, 10]: 1 | Dyspnea, Grades 3/4 [1, 10]: 1 | Fatigue, Grades 3/4 [1, 10]: 1 | Hypokalemia, Grades 3/4 [1, 10]: 1 | Lymphopenia, Grades 3/4 [1, 10]: 2 | Pain, Grades 3/4 [1, 10]: 0 | Pneumonia, Grades 3/4 [1, 10]: 1 | Thrombocytopenia, Grades 3/4 [1, 10]: 1 | Anemia, Grades 3/4 [1, 11]: 1 | Decreased hemoglobin, Grades 3/4 [1, 11]: 1 | Dyspnea, Grades 3/4 [1, 11]: 1 | Fatigue, Grades 3/4 [1, 11]: 1 | Hypokalemia, Grades 3/4 [1, 11]: 1 | Lymphopenia, Grades 3/4 [1, 11]: 1 | Pain, Grades 3/4 [1, 11]: 0 | Pneumonia, Grades 3/4 [1, 11]: 0 | Thrombocytopenia, Grades 3/4 [1, 11]: 0 | Grade 3/4 anemia, incidence ([1]; all patients, n=50): 28.0% | Grade 3/4 fatigue, incidence ([1]; all patients, n=50): 14.0% | Grade 3/4 lymphopenia, incidence ([1]; all patients, n=50): 18.0% | Grade 3/4 thrombocytopenia, incidence ([1]; all patients, n=50): 20.0% | AEs leading to dose reduction ([1]; in vivo): 18.0% | Clinical congestive heart failure ([1]; in vivo): four | Grade 3 neuropathy during the study ([1]; in vivo): 2.0% | Serious AE acute renal failure ([1]; in vivo): 6.0% | Serious AE congestive heart failure ([1]; in vivo): 6.0% | Serious AE dehydration ([1]; in vivo): 6.0% | Serious AE pneumonia ([1]; in vivo): 16.0% | Serious AEs, patients ([1]; in vivo): 66.0% | anemia of any grade, incidence ([1]; in vivo): 50.0% | diarrhea of any grade, incidence ([1]; in vivo): 36.0% | elevations in serum creatinine from Grade ⩽2 at baseline to Grade 3 at any point after beginning treatment ([1]; in vivo): Five | fatigue of any grade, incidence ([1]; in vivo): 56.0% | incidence of treatment-emergent or worsening neuropathy of any grade ([1]; in vivo): 12.0% | nausea of any grade, incidence ([1]; in vivo): 36.0% | patients with at least one treatment-emergent AE ([1]; in vivo): 94.0% | worsening of renal function to Grade 3 ([1]; in vivo): 12.0% | Grade 3/4 infection: respiratory tract infection ([1]; n=2 of 50): 4.0% | Grade 3/4 infection: sepsis ([1]; n=2 of 50): 4.0% | Grade 3/4 infection: influenza ([1]; n=3 of 50): 6.0% | Grade 3/4 infection: bacterial pneumonia ([1]; n=6 of 50): 12.0% | deaths on study or within 30 days of discontinuation of treatment ([1]; n=50, all attributed primarily to disease progression): five | Serious AE influenza ([1]; three patients of 50): 6.0% | total amount of carfilzomib recovered in the urine, of the administered dose ([2]; all groups, Days 1 and 15 of Cycle 1, within 24 h post-dosing): less than 1% | mean total concentration of carfilzomib in urine ([2]; group with normal renal function, day 1 of Cycle 1, 15 mg/m^2 IV, post-dose urine collection, LC MS/MS): 0.157 mg | inhibition of proteasome CT-L activity from pre-dose levels ([3]; RBCs and peripheral blood mononuclear cells, one hour after the first dose, 15 mg/m^2, range across groups): 73–87% | recovery of proteasome CT-L activity in RBCs ([3]; by the start of Cycle 2, cumulative inhibition during first treatment cycle): little to no recovery | recovery of proteasome activity in peripheral blood mononuclear cells ([3]; day 8 (5 days after the most recent dose) and beginning of Cycle 2 (12 days after dosing)): complete or near to complete | ECG effects on heart rate, atrioventricular conduction, cardiac depolarization (QT, PR, QRS intervals) [4]: no clinically relevant effects | Complete response [5, 12]: 0 n (%) | Minimal response [5, 12]: 3 (10.7) n (%) | Progressive disease [5, 12]: 5 (17.9) n (%) | Stable disease [5, 12]: 10 (35.7) n (%) | Very good PR [5, 12]: 0 n (%) | Overall response rate ([5]; All patients, n=47): 12 (25.5) n (%) | Complete response [5, 13]: 0 n (%) | Progressive disease [5, 13]: 10 (21.3) n (%) | Stable disease [5, 13]: 21 (44.7) n (%) | Very good PR [5, 13]: 0 n (%) | Duration of response, median (95% CI) ([5]; All patients, NE, not estimated due to censoring): 7.9 months | Complete response [5, 14]: 0 n (%) | Minimal response [5, 14]: 1 n (%) | Progressive disease [5, 14]: 0 n (%) | Stable disease [5, 14]: 3 (42.9) n (%) | Very good PR [5, 14]: 0 n (%) | Minimal response [5, 15]: 1 (9.1) n (%) | Progressive disease [5, 15]: 1 (9.1) n (%) | Duration of response, median (95% CI) ([5]; Group 1 (normal renal function), NE, not estimated due to censoring): NE (2.0–NE) | Complete response [5, 16]: 0 n (%) | Minimal response [5, 16]: 1 (12.5) n (%) | Progressive disease [5, 16]: 3 (37.5) n (%) | Stable disease [5, 16]: 1 (12.5) n (%) | Very good PR [5, 16]: 0 n (%) | Overall response rate ([5]; Group 2 (mild impairment), n=11): 3 (27.3) n (%) | Complete response [5, 17]: 0 n (%) | Minimal response [5, 17]: 1 (9.1) n (%) | Stable disease [5, 17]: 3 (27.3) n (%) | Very good PR [5, 17]: 0 n (%) | Duration of response, median (95% CI) ([5]; Group 2 (mild impairment), NE, not estimated due to censoring): NE (4.2–NE) | Complete response [5, 18]: 0 n (%) | Minimal response [5, 18]: 0 n (%) | Progressive disease [5, 18]: 0 n (%) | Stable disease [5, 18]: 3 (75.0) n (%) | Very good PR [5, 18]: 0 n (%) | Overall response rate ([5]; Group 3 (moderate impairment), n=9): 2 (22.2) n (%) | Complete response [5, 19]: 0 n (%) | Minimal response [5, 19]: 0 n (%) | Progressive disease [5, 19]: 3 (33.3) n (%) | Stable disease [5, 19]: 4 (44.4) n (%) | Very good PR [5, 19]: 0 n (%) | Duration of response, median (95% CI) ([5]; Group 3 (moderate impairment), NE, not estimated due to censoring): NE (2.3–NE) | Complete response [5, 20]: 0 n (%) | Minimal response [5, 20]: 1 (20.0) n (%) | Progressive disease [5, 20]: 2 (40.0) n (%) | Stable disease [5, 20]: 2 (40.0) n (%) | Very good PR [5, 20]: 0 n (%) | Overall response rate [5, 10]: 2 (25.0) n (%) | Complete response [5, 21]: 0 n (%) | Minimal response [5, 21]: 1 (12.5) n (%) | Progressive disease [5, 21]: 2 (25.0) n (%) | Stable disease [5, 21]: 3 (37.5) n (%) | Very good PR [5, 21]: 0 n (%) | Duration of response, median (95% CI) ([5]; Group 4 (severe impairment), NE, not estimated due to censoring): NE (7.9–NE) | Duration of response, median (95% CI) ([5]; Group 5 (chronic dialysis)): 7.9 (6.5–8.5) months | Complete response [5, 22]: 0 n (%) | Minimal response [5, 22]: 0 n (%) | Progressive disease [5, 22]: 0 n (%) | Stable disease [5, 22]: 1 (25.0) n (%) | Very good PR [5, 22]: 0 n (%) | Overall response rate [5, 11]: 3 (37.5) n (%) | Complete response [5, 23]: 0 n (%) | Minimal response [5, 23]: 0 n (%) | Progressive disease [5, 23]: 0 n (%) | Stable disease [5, 23]: 4 (50.0) n (%) | Very good PR [5, 23]: 0 n (%) | Response improved to PR after the addition of dexamethasone ([5]; nine of 28 patients who received dexamethasone before each carfilzomib dose after Cycle 2): 32.1% | Slope (95% CI) of linear regression of AUCinf as a function of creatinine clearance [6]: 0.012 (−0.030, 0.054) | Slope (95% CI) of linear regression of AUClast (h·ng/ml) as a function of creatinine clearance [6]: 0.008 (−0.031, 0.048) | Slope (95% CI) of linear regression of Cmax (ng/ml) as a function of creatinine clearance [6]: 0.225 (−0.242, 0.692) | Slope (95% CI) of linear regression of carfilzomib clearance (l/h) as a function of creatinine clearance [6]: −0.607 (−2.129, 0.914) | CL ([6]; iv): 110 L/h | median terminal half life (t1/2) ([6]; iv): less than 60 min
